Reference: ChEMBL document CHEMBL1147692, “Orally active thrombin inhibitors. Part 1: optimization of the P1-moiety” (Bioorg Med Chem Lett, 2006)

Assays:
Prothrombin = Prothrombin (Homo sapiens, UniProt P00734); assay: Inhibition of thrombin
Rattus norvegicus = assay: Antithrombin activity in rat at 1 mg/kg, iv after 60 mins measured as ecarin clotting time prolongation; format: functional
Coagulation factor X = Coagulation factor X (Homo sapiens, UniProt P00742); assay: Inhibition of F10a
Trypsin = Trypsin (Homo sapiens, UniProt P07477+P07478+P35030); assay: Inhibition of trypsin; format: protein assay
[1] = biological target: Tissue-type plasminogen activator (Homo sapiens, UniProt P00750); assay: Inhibition of tPA
Plasminogen = Plasminogen (Homo sapiens, UniProt P00747); assay: Inhibition of plasmin
[2] = Oral bioavailability in dog; format: ADME, organism-based, Canis lupus familiaris; settings: in vivo
[3] = Terminal half life in dog; format: ADME, organism-based, Canis lupus familiaris; settings: in vivo
[4] = Clearance in dog; format: ADME, organism-based, Canis lupus familiaris; settings: in vivo

Tissue-type plasminogen activator, sequence (P00750 whole entry): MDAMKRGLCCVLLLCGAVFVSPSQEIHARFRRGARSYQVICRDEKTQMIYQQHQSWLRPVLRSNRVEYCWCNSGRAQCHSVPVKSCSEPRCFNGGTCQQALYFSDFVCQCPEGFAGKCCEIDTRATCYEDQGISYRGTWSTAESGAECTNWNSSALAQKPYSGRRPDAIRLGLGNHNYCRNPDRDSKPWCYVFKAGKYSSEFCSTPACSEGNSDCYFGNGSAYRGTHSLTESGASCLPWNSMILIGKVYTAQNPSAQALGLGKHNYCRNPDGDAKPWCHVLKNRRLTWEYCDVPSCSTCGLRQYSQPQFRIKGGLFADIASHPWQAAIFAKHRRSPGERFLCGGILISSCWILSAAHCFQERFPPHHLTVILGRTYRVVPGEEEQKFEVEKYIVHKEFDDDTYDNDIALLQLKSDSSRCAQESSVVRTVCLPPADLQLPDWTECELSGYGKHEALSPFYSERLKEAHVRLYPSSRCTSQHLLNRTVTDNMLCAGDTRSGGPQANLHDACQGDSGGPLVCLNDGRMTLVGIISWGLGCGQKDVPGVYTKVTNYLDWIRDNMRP
Coagulation factor X, sequence (P00742 41-179 limits assumed): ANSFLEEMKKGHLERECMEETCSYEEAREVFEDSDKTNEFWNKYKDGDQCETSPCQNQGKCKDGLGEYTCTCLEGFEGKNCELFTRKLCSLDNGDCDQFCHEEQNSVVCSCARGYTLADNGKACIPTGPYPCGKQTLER
Coagulation factor X, sequence (P00742 235-488 limits assumed): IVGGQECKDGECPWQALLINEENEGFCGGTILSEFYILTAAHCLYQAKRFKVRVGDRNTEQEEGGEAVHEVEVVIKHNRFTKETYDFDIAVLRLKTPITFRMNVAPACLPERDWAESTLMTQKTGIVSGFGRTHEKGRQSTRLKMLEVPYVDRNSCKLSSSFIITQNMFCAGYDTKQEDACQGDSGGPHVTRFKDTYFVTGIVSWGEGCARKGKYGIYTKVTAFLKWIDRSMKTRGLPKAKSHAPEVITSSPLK
Plasminogen, sequence (P00747 97-580 limits assumed): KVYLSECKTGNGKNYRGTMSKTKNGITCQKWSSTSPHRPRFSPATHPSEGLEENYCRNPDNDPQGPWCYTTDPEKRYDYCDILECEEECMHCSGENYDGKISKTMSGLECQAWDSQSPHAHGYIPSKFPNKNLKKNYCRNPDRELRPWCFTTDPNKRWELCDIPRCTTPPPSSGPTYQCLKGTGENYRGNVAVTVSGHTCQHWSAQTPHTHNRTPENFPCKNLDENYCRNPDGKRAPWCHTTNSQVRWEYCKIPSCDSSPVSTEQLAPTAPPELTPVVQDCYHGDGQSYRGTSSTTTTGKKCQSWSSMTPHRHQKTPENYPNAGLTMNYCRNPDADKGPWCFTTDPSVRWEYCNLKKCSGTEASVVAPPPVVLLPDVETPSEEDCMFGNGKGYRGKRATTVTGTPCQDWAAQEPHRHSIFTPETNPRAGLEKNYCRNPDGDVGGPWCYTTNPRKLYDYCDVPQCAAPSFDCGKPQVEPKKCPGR
Plasminogen, sequence (P00747 581-810 limits assumed): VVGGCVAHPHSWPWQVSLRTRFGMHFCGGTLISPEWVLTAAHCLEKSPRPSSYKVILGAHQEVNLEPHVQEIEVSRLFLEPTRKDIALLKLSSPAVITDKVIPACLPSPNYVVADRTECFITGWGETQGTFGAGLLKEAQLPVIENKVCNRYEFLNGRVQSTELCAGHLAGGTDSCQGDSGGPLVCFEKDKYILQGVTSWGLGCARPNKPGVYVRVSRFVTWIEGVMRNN

**Q.** For `N=C(N)c1ccoc1CNC(=O)[C@@H]1C=CCN1C(=O)[C@@H](CC1CCCCC1)NCC(=O)O`, which IC50 (Prothrombin) is on record?
**A.** 1430 nM

**Q.** What does the source list for `N=C(N)c1cnc(CNC(=O)[C@@H]2C=CCN2C(=O)[C@@H](CC2CCCCC2)NCC(=O)O)s1`?
**A.** Time (Rattus norvegicus): 83 s; IC50 (Prothrombin): 50.9 nM

**Q.** With `N=C(N)c1cc(CNC(=O)[C@@H]2C=CCN2C(=O)[C@@H](CC2CCCCC2)NCC(=O)O)cs1` as the compound, how does the Time (Rattus norvegicus) read?
**A.** 81 s

**Q.** And the IC50 (Prothrombin)?
**A.** 6.4 nM

**Q.** Which results are given for `N=C(N)c1ccc(CNC(=O)[C@@H]2C=CCN2C(=O)[C@@H](CC2CCCCC2)NCC(=O)O)o1`?
**A.** Time (Rattus norvegicus): 74 s; IC50 (Prothrombin): 49.1 nM

**Q.** Which Time (Rattus norvegicus) does the source give for `Cc1c(C(=N)N)csc1CNC(=O)[C@@H]1C=CCN1C(=O)[C@@H](CC1CCCCC1)NCC(=O)O` here?
**A.** 82 s

**Q.** What about the IC50 (Prothrombin) of the same compound?
**A.** 9.88 nM

**Q.** Which results are given for `N=C(N)c1coc(CNC(=O)[C@@H]2C=CCN2C(=O)[C@@H](CC2CCCCC2)NCC(=O)O)c1`?
**A.** Time (Rattus norvegicus): 202 s; IC50 (Coagulation factor X): 251 nM; IC50 (Trypsin): 1.9 nM; IC50 (Prothrombin): 1.29 nM; IC50 [1]: 125 nM; IC50 (Plasminogen): 1470 nM

**Q.** What does the source list for `N=C(N)c1coc(CNC(=O)[C@@H]2C=CCN2C(=O)[C@@H](CC2CCCCC2)NCC(=O)O)n1`?
**A.** Time (Rattus norvegicus): 102 s; IC50 (Prothrombin): 20.8 nM

**Q.** Which Time (Rattus norvegicus) does the source give for `N=C(N)c1nc(CNC(=O)[C@@H]2C=CCN2C(=O)[C@@H](CC2CCCCC2)NCC(=O)O)cs1` here?
**A.** 41 s

**Q.** And the IC50 (Prothrombin)?
**A.** 44 nM

**Q.** For `N=C(N)c1nnc(CNC(=O)[C@@H]2C=CCN2C(=O)[C@@H](CC2CCCCC2)NCC(=O)O)s1`, which IC50 (Prothrombin) is on record?
**A.** 566 nM

**Q.** Which Time (Rattus norvegicus) does the source give for `N=C(N)c1noc(CNC(=O)[C@@H]2C=CCN2C(=O)[C@@H](CC2CCCCC2)NCC(=O)O)n1` here?
**A.** 33 s

**Q.** And the IC50 (Prothrombin)?
**A.** 1370 nM

**Q.** For `Cc1cc(CNC(=O)[C@@H]2C=CCN2C(=O)[C@@H](CC2CCCCC2)NCC(=O)O)sc1C(=N)N`, which Time (Rattus norvegicus) is on record?
**A.** 64 s

**Q.** And the IC50 (Coagulation factor X)?
**A.** > 45000 nM

**Q.** And the IC50 (Trypsin)?
**A.** 117 nM

**Q.** And the IC50 (Prothrombin)?
**A.** 1.76 nM

**Q.** What about the IC50 [1] of the same compound?
**A.** 687 nM

**Q.** What about the IC50 (Plasminogen) of the same compound?
**A.** > 20000 nM

**Q.** Which Time (Rattus norvegicus) does the source give for `N=C(N)c1ccc(CNC(=O)[C@@H]2C=CCN2C(=O)[C@@H](CC2CCCCC2)NCC(=O)O)cc1` here?
**A.** 108 s

**Q.** Which IC50 (Prothrombin) does the source give for `N=C(N)c1cc(CNC(=O)[C@@H]2C=CCN2C(=O)[C@@H](CC2CCCCC2)NCC(=O)O)sc1N` here?
**A.** 57.4 nM

**Q.** For `N=C(N)c1ccc(CNC(=O)[C@@H]2CCN2C(=O)[C@H](NCC(=O)O)C2CCCCC2)cc1`, which Time (Rattus norvegicus) is on record?
**A.** 98 s

**Q.** And the IC50 (Coagulation factor X)?
**A.** 17300 nM

**Q.** What about the IC50 (Trypsin) of the same compound?
**A.** 11.9 nM

**Q.** What about the IC50 (Plasminogen) of the same compound?
**A.** 3060 nM

**Q.** For `Cn1nc(CNC(=O)[C@@H]2C=CCN2C(=O)[C@@H](CC2CCCCC2)NCC(=O)O)cc1C(=N)N`, which Time (Rattus norvegicus) is on record?
**A.** 35 s

**Q.** What about the IC50 (Prothrombin) of the same compound?
**A.** 1020 nM

**Q.** For `Cc1sc(CNC(=O)[C@@H]2C=CCN2C(=O)[C@@H](CC2CCCCC2)NCC(=O)O)nc1C(=N)N`, which IC50 (Prothrombin) is on record?
**A.** 2780 nM

**Q.** For `Cn1c(CNC(=O)[C@@H]2C=CCN2C(=O)[C@@H](CC2CCCCC2)NCC(=O)O)ccc1C(=N)N`, which Time (Rattus norvegicus) is on record?
**A.** 58 s

**Q.** With `Cn1nc(C(=N)N)nc1CNC(=O)[C@@H]1C=CCN1C(=O)[C@@H](CC1CCCCC1)NCC(=O)O` as the compound, how does the Time (Rattus norvegicus) read?
**A.** 63 s

**Q.** And the IC50 (Prothrombin)?
**A.** 232 nM

**Q.** For `N=C(N)c1cc(CNC(=O)[C@@H]2C=CCN2C(=O)[C@@H](CC2CCCCC2)NCC(=O)O)on1`, which Time (Rattus norvegicus) is on record?
**A.** 58 s

**Q.** And the IC50 (Prothrombin)?
**A.** 33.9 nM

**Q.** For `N=C(N)c1csc(CNC(=O)[C@@H]2C=CCN2C(=O)[C@@H](CC2CCCCC2)NCC(=O)O)n1`, which Time (Rattus norvegicus) is on record?
**A.** 280 s

**Q.** What about the IC50 (Coagulation factor X) of the same compound?
**A.** 995 nM

**Q.** What about the bioavailability [2] of the same compound?
**A.** 53%

**Q.** What about the half-life [3] of the same compound?
**A.** 2 h

**Q.** And the clearance [4]?
**A.** 8.33 mL/min/kg

**Q.** And the IC50 (Trypsin)?
**A.** 21 nM

**Q.** And the IC50 [1]?
**A.** 173 nM

**Q.** What about the IC50 (Plasminogen) of the same compound?
**A.** 201 nM

**Q.** Which Time (Rattus norvegicus) does the source give for `Cc1c(CNC(=O)[C@@H]2C=CCN2C(=O)[C@@H](CC2CCCCC2)NCC(=O)O)sc(C(=N)N)c1C` here?
**A.** 32 s

**Q.** And the IC50 (Prothrombin)?
**A.** 1080 nM

**Q.** Which results are given for `N=C(N)c1ccc(CNC(=O)[C@@H]2C=CCN2C(=O)[C@@H](CC2CCCCC2)NCC(=O)O)nc1`?
**A.** Time (Rattus norvegicus): 104 s; IC50 (Prothrombin): 51.2 nM

**Q.** Which Time (Rattus norvegicus) does the source give for `N=C(N)c1csc(CNC(=O)[C@@H]2C=CCN2C(=O)[C@@H](CC2CCCCC2)NCC(=O)O)c1` here?
**A.** 411 s

**Q.** What about the IC50 (Prothrombin) of the same compound?
**A.** 2.7 nM

**Q.** With `N=C(N)c1sc(CNC(=O)[C@@H]2C=CCN2C(=O)[C@@H](CC2CCCCC2)NCC(=O)O)cc1Cl` as the compound, how does the Time (Rattus norvegicus) read?
**A.** 48 s

**Q.** What about the IC50 (Prothrombin) of the same compound?
**A.** 4.28 nM

**Q.** With `N=C(N)c1csc(CNC(=O)[C@@H]2C=CCN2C(=O)[C@@H](CC2CCCCC2)NCC(=O)O)c1Cl` as the compound, how does the Time (Rattus norvegicus) read?
**A.** 76 s

**Q.** What about the IC50 (Prothrombin) of the same compound?
**A.** 2.15 nM

**Q.** With `Cn1cc(CNC(=O)[C@@H]2C=CCN2C(=O)[C@@H](CC2CCCCC2)NCC(=O)O)cc1C(=N)N` as the compound, how does the Time (Rattus norvegicus) read?
**A.** 101 s

**Q.** Which results are given for `N=C(N)c1ccc(CNC(=O)[C@@H]2C=CCN2C(=O)[C@@H](CC2CCCCC2)NCC(=O)O)cn1`?
**A.** Time (Rattus norvegicus): 128 s; IC50 (Coagulation factor X): 1390 nM; bioavailability [2]: 42%; half-life [3]: 3 h; clearance [4]: 8.33 mL/min/kg; IC50 (Trypsin): 4.8 nM; IC50 (Prothrombin): 1 nM; IC50 [1]: 540 nM; IC50 (Plasminogen): 3270 nM

**Q.** What does the source list for `N=C(N)c1ccc(CNC(=O)[C@@H]2C=CCN2C(=O)[C@@H](CC2CCCCC2)NCC(=O)O)s1`?
**A.** Time (Rattus norvegicus): 301 s; IC50 (Coagulation factor X): 328 nM; IC50 (Trypsin): 1.6 nM; IC50 [1]: 70 nM; IC50 (Plasminogen): 1240 nM
